# In patent US6967102B1, “Nitric oxide manipulation of muscle satellite cell activation” (University of Manitoba, priority 1999, dated 2005):
# “Also recorded” adds a separate entry of the source.
# Legend:
# satellite cells [1] = assay: Isolated single muscle fiber culture, BrdU incorporation by satellite cells (activation); type: cell-based, C57 mice
# Source text: (§1) Flexor digitorum brevis (FDB) muscles from normal C57 mice were dissected from the foot, and connective tissue, vessels and nerves were cleaned off the muscle. Following a 3 hr collagenase digestion (0.2% in DMEM), and viewed on a dissecting microscope, the muscle was separated into three bundles and the overlying connective tissue was peeled off the bundles using sharp forceps. The individual fibers were then teased off the remnant tendon and into smaller bundles. Bundles were gently triturated to separate single fibers using a wide mouth glass pipette with a polished end. The fibers were plated onto vitrogen-coated 35 mm dishes and grown in 1.5 ml of DMEM+10% Horse Serum (HS)+1% antimyotics+0.1% gentamycin.
# Live fibers exclude Ethidium bromide (EtBr), but 5 minutes after adding a myotoxin called marcaine (Bischoff R. (1990b). Development 109:943–952) to the medium, nuclei in fibers (and not in satellite cells) are fluorescent for EtBr. Hypercontraction occurs another 5–10 min later. Satellite cells exclude EtBr but take up an indicator of live cells, fluoresceine diacetate (FDA). Without this characterization, observations on satellite cells in a culture could include artefacts from membrane damage that initiates activation differently than any treatment under study. Satellite cells on our intact fibers were also quiescent after isolation. […] This conclusion is critical to any studies that propose to examine activation signals and their regulation.
# Experimental Protocol: Fibers are isolated from flexor digitorum brevis (FDB) muscles on the plantar foot of 3 mice, then digested in collagenase (0.2% for 3 hr) and separated under a stereo microscope into small bundles (Yablonka-Reuveni, Z. and Rivera AJ. (1994). Dev. Biol. 164:588–603). […]
# Fibers are incubated in 20% serum replacement medium (CSR; Yablonka-Reuveni, Z, and Rivera A J. (1994). Dev. Biol. 164:588–603). […] Activation is measured by counting labelled satellite cells per fiber (150–250 fibers/dish). […]
# satellite cells [2] = assay: Cell yield time course 0–30 min after crush injury of right tibialis anterior, normal mice; type: in vivo, normal mice (C57BL/6); settings: L-Arg 225 mg/kg ip 30 min before crush; 0–30 min
# [3] = Muscle weight to body weight (edema) and haemorrhage after crush injury, normal mice; type: in vivo, normal mice (C57BL/6); settings: ip treatment 30 min before crush; 0–30 min after injury
# muscle fibers = assay: Marcaine / ethidium bromide staining and hypercontraction of isolated muscle fibers; type: cell-based, C57 mice
# Source text: as §1
# Marcaine, an anaesthetic, was previously used to kill live fibers by adding it to a dish for 20–30 minutes (Cornelison, D. D. W., and Wold, B. J. (1997). Dev. Biol. 191:270–283) but the exact time of fiber death was never identified. Ethidium bromide (EtBr) is a fluorescent chemical which intercalates into the DNA of dead cells but is not taken up into live fibers. Media was mostly decanted from freshly plated fibers and the fibers were located using a microscope. 2–3 drops of either EtBr (2.5 μg/ml) in DMEM or Marcaine (0.05%)+EtBr (2.5 μg/ml) in DMEM were then added to the dish under continuous observation. Fiber hypercontraction was observed using a phase lens and the time course of EtBr nuclear staining was observed under UV light using a red filter. Photographs (ASA400 Fuji Colour Film) were taken to record staining of live, fixed, EtBr and Marcaine treated fibers and nuclei.
# muscle precursor cells = settings: deflazacort treatment on mdx mice; cited from earlier work
# dystrophic muscle = assay: Central nucleation index (CNI) in LTA and diaphragm of treated mdx mice; type: in vivo; settings: mdx mice treated from 4–8 weeks of age; for CNI (central nucleation index) in DIA: diaphragm; for CNI (central nucleation index) in LTA: left tibialis anterior
# Source text: A study of 4 groups (n≈10/group) of mdx dystrophic mice treated with placebo, deflazacort, deflazacort plus L-NAME (a NOS inhibitor), or deflazacort plus L-arginine (a […]). Deflazacort was given by daily injection (ip) and L-NAME and L-arginine were given systemically in the drinking water.
# When a normal peripherally nucleated myofiber degenerates, muscle precursor cells proliferate to varying extents (Grounds Md., McGeachie J K. (1989). Exp. Cell Res 180:429–439) and fuse to form centrally nucleated myotubes. These myotubes grow, or even hypertrophy compared to the original distribution of fiber size in that muscle, and span the injured area, (Anderson J E, Ovalle W K, Bressler B H. (1987). Anat. Rec. 219:243–257; Anderson J E, Bressler B H, Ovalle W K. (1988). J. Muscle Res. Cell Motil. 9:499–515; Ontell M, Feng K C, Klueber K, Dunn R F, Taylor F. (1984). Anat. Rec. 208:159 174) but remain centrally nucleated; thus the central nucleation index (CNI) is a useful measure of accumulated damage and repair. (Karpati G, Carpenter S. (1988). Muscle Nerve. 11:795–803). The CNI is a measurement well known in the art (see Karpati and Carpenter. 1988. Muscle Nerve. 11:795–803 and Anderson et al. 1996. Muscle Nerve. 19:1576–1585).
# CNI is the proportion of all fibers in a section or a muscle which show a centrally-located nucleus (often given as a percentage). Since muscular dystrophy causes ongoing damage of muscle fibers, the successful repair of those fibers is marked by centrally-nucleated fibers which accumulate as a proportion of total fibers. Unsuccessful repair can be viewed as a loss of fibers in a section of a whole muscle; this too can produce a change in the ratio of centrally nucleated to total number of fibers (expressed as a percentage).
# In this experiment, muscle tissues are collected from the treated animals. LTA and diaphragm muscles were sectioned, and counts of fibers with central nuclei and fibers with peripheral nuclei were performed. The largest diameter of the muscle section in each of the two sections of each muscle was used for counting, for 10 mice per group (2 muscles per mouse).
# This is similar for the tibialis anterior muscle (LTA) and diaphragm at the age shown in the graph (which is 8 weeks of age) and is reliably used to monitor the progressive effect of dystrophic fiber injury on a muscle over time as the disease progresses. CNI will increase with age in the mdx mice (until the plateau discussed above). Mice are treated from 4–8 weeks of age with placebo, Deflazacort, D+L-NAME or D+L-Arginine.
# [4] = Marcaine (0.05%)+EtBr (2.5 μg/ml) in DMEM
molecule,measurement,setting,value
"N=C(N)NCCC[C@H](N)C(=O)O [L-Arg, L-arginine]",concentration showing maximal activation,"satellite cells [1]; L-Arginine 50–1000 nM, initial results",500 nM
same,satellite cell activation (marked by DNA synthesis),"satellite cells [1]; single normal fibers, L-arginine at various concentrations, 48 hr",stimulates activation in a dose-dependent manner
same,satellite cell migration away from fibers,"satellite cells [1]; single normal fibers, L-arginine, 48 hr",stimulates satellite cell migration away from fibers
same,RSOL cell counts,satellite cells [2],unchanged
same,RTA cell yield time course,satellite cells [2],"rose sharply at 5 min., and also stayed high"
same,muscle weight profile (RTA relative to LTA; muscle weight as proportion of body weight),[3],little or no change in muscle weight profile
CCCCN1CCCCC1C(=O)Nc1c(C)cccc1C (stereo not drawn) [Marcaine],time to EtBr staining of nuclei of live fibers after Marcaine,muscle fibers; [4],60 to 90 s
same,time to fiber hypercontraction,muscle fibers; [4],5 to 10 min
same,further time until hypercontraction after nuclei fluoresce,muscle fibers; marcaine added to the medium,5 to 10 min
same,time after adding marcaine at which nuclei in fibers are fluorescent for EtBr,muscle fibers; marcaine added to the medium,5 min
CC(=O)OCC(=O)[C@@]12N=C(C)O[C@@H]1C[C@H]1[C@@H]3CCC4=CC(=O)C=C[C@]4(C)[C@H]3[C@@H](O)C[C@@]12C [deflazacort],increase in precursor cell proliferation and formation of new muscle fibers,muscle precursor cells,1.5–2 fold
same,CNI (central nucleation index) in DIA,dystrophic muscle,significantly lower CNI after deflazacort
same,CNI (central nucleation index) in LTA,dystrophic muscle,0.4
D+L-Arginine,CNI (central nucleation index) in DIA,dystrophic muscle,decrease the CNI of DIA from the level seen with D+L-NAME
same,CNI (central nucleation index) in LTA,dystrophic muscle,increase in LTA CNI from deflazacort alone; also recorded: still significantly lower than placebo treatment
